From patent publication US5866571A, “9-substituted 2-(2-n-alkoxyphenyl)-purin-6-ones” (Bayer Aktiengesellschaft, priority 1995, dated 1999)

What was measured:
Format in all cases: biochemical
[1] = system: PDE II (cGMP-stimulatable PDE II); assay: Inhibition of the phosphodiesterases in vitro: PDE II; conditions: enzyme from porcine or bovine myocardium; ^3HcAMP substrate plus 10^-6 mol/l non-labelled cGMP, pH 7.5, 30 minutes
Protocol: (§1) Activity of the phosphodiesterases (PDE's)
(§2) The cGMP-stimulatable PDE II, the cGMP-inhibitable PDE III and the cAMP-specific PDE IV were isolated from either the porcine or the bovine myocardium. The Ca-calmodulin-stimulatable PDE I was isolated from porcine aorta or porcine brain. The cGMP-specific PDE V was obtained from porcine small intestine, porcine aorta and/or human blood platelets. Purification was carried out by anion exchange chromatography on MonoQ^R Pharmacia essentially by the method of M. Hoey and Miles D. Houslay, Biochemical Pharmacology, Volume 40, 193-202 (1990).
(§3) The enzyme activity is determined in a test batch of 100 μl in 20 mM Tris/HCl buffer of pH 7.5 which contains 5 mM MgCl2, 0.1 mg/ml of bovine serum albumin and either 800 Bq of ^3 HcAMP or ^3 HcGMP. The final concentration of the corresponding nucleotides is 10^-6 mol/l. The reaction is started by addition of the enzyme and the amount of enzyme is chosen such that about 50% of the substrate is reacted during the incubation time of 30 minutes. In order to test the cGMP-stimulatable PDE II, ^3 HcAMP is used as the substrate and 10^-6 mol/l of non-labelled cGMP is added to the batch. In order to test the Ca-calmodulin-dependent PDE I, 1 μM CaCl2 and 0.1 μM calmodulin are also added to the reaction batch. The reaction is stopped by addition of 100 μl of acetonitrile which contains 1 mM cAMP and 1 mM AMP. 100 μl of the reaction batch are separated on the […] and the cleavage products are determined quantitatively "on line" with a flow-through scintillation counter. The substance concentration at which the rate of reaction is reduced by 50% is measured.
(§4) Inhibition of the phosphodiesterases in vitro

[2] = system: PDE I (Ca-calmodulin-stimulatable PDE I); assay: Inhibition of the phosphodiesterases in vitro: PDE I; conditions: enzyme from porcine aorta or porcine brain; 1 μM CaCl2, 0.1 μM calmodulin; 10^-6 mol/l nucleotide, pH 7.5, 30 minutes
Protocol: as §1, §2, §3, §4

[3] = system: PDE V (cGMP-specific PDE V); assay: Inhibition of the phosphodiesterases in vitro: PDE V; conditions: enzyme from porcine small intestine, porcine aorta and/or human blood platelets; 10^-6 mol/l nucleotide, pH 7.5, 30 minutes
Protocol: as §1, §2, §3, §4

SMILES | IC50 [1] | IC50 [2] | IC50 [3]
CCCCCCC(C(C)O)n1cnc2c(=O)[nH]c(-c3ccccc3OCCC)nc21 (stereo not drawn) [Example 3, 9-(2-hydroxy-3-nonyl)-2-(2-n-propoxyphenyl)-purin-6-one] | 6000 nM | 50000 nM | 100 nM
CCCOc1ccccc1-c1nc2c(ncn2C(CCc2ccccc2)C(C)O)c(=O)[nH]1 (stereo not drawn) [Example 4, 9-(2-hydroxy-5-phenyl-3-methyl)-2-(2-n-propoxyphenyl)-purin-6-one] | 1000 nM | 2000 nM | 5000 nM
CCCOc1ccccc1-c1nc2c(ncn2C(CCCc2ccccc2)C(C)O)c(=O)[nH]1 (stereo not drawn) [Example 5, 9-(2-hydroxy-6-phenyl-3-hexyl)-2-(2-n-propoxyphenyl)-purin-6-one] | 500 nM | 1000 nM | 2000 nM
CCCOc1ccccc1-c1nc2c(ncn2C(C)CCCc2ccccc2)c(=O)[nH]1 (stereo not drawn) [Example 11] | 300 nM | 500 nM | 500 nM
CCCCCCC(C(C)NC(C)=O)n1cnc2c(=O)[nH]c(-c3ccccc3OCCC)nc21 (stereo not drawn) [Example 37, 9-(2-Acetamido-3-nonyl)-2-(2-n-propoxyphenyl)-purin-6-one] | 2000 nM | 2000 nM | 1000 nM
CCCCCCC(CC)n1cnc2c(=O)[nH]c(-c3cc(S(=O)(=O)N4CCOCC4)ccc3OCCC)nc21 (stereo not drawn) [Example 57] | 300 nM | 300 nM | 100 nM
